Test results as given in publication PMC7561186, “Rational design of balanced dual-targeting antibiotics with limited resistance” (PLoS Biology, 2020).
Where “and” joins values, the source holds several entries; their conditions need not be identical. Equal values may be shown once. Read-outs that look alike come from different tables or passages of the source.

Assays:
[1] = test system: Acinetobacter baumannii; experiment: MIC, broth microdilution (CLSI); format: cell-based
Method: (§1) MICs were determined using a standard serial broth microdilution technique according to the CLSI guidelines. Briefly, bacterial strains were inoculated onto MHBII agar plates and were grown overnight at 37 °C. Next, 3 individual colonies from each strain were inoculated into 1 mL MHBII medium and propagated at 37 °C, 250 rpm overnight. In the cases of Enterococcus and Streptococcus sp., cells were plated to BHI agar plates, and BHI broth was used to determine MICs. […] Following dilutions, each well was seeded with 5×10^4 bacterial cells. All measurements were performed in 3 parallel replicates and to avoid possible edge effects in microwell plates, side rows (A and H) were filled with sterile medium. Following inoculations, plates were covered with lids and wrapped in polyethylene plastic bags to minimize evaporation but allow for O2 transfer. Plates were incubated at 37 °C under continuous shaking at 150 rpm for 18 hours. After incubation, OD600 of each well was measured using a BioTek Synergy 2 microplate reader.

[2] = test system: Clostridium difficile; experiment: MIC, broth microdilution (CLSI); format: cell-based
Method: as §1

[3] = test system: Enterococcus faecalis; experiment: MIC, broth microdilution (CLSI); format: cell-based
Method: as §1

[4] = test system: Escherichia coli; experiment: MIC, broth microdilution (CLSI); format: cell-based; conditions: Escherichia coli ATCC 25922
Method: as §1

[5] = test system: Haemophilus influenzae; experiment: MIC, broth microdilution (CLSI); format: cell-based
Method: as §1

[6] = test system: Helicobacter pylori; experiment: MIC, broth microdilution (CLSI); format: cell-based; conditions: Helicobacter pylori ATCC 43504
Method: as §1

[7] = test system: Klebsiella pneumoniae; experiment: MIC, broth microdilution (CLSI); format: cell-based; conditions: Klebsiella pneumoniae ATCC 10031
Method: as §1

[8] = test system: Neisseria gonorrhoeae; experiment: MIC, broth microdilution (CLSI); format: cell-based
Method: as §1

[9] = test system: Pseudomonas aeruginosa; experiment: MIC, broth microdilution (CLSI); format: cell-based
Method: as §1

[10] = test system: Shigella flexneri; experiment: MIC, broth microdilution (CLSI); format: cell-based
Method: as §1

[11] = test system: Staphylococcus aureus; experiment: MIC, broth microdilution (CLSI); format: cell-based
Method: as §1

[12] = test system: Streptococcus pneumoniae; experiment: MIC, broth microdilution (CLSI); format: cell-based
Method: as §1

[13] = test system: Streptococcus pyogenes; experiment: MIC, broth microdilution (CLSI); format: cell-based
Method: as §1

[14] = test system: S. aureus ATCC 700699 VISA; experiment: Time-dependent killing; format: cell-based; conditions: for Time-kill bacterial count: 10xMIC; for Colony numbers: time-kill raw counts, Samples 1-3
[15] = test system: novobiocin-resistant S. aureus VISA ATCC 700699 mutants; experiment: MIC against novobiocin-resistant (novobiocin-adapted) strains; format: cell-based; conditions: for MIC: Staphylococcus aureus
Method: as §1

[16] = test system: CHO-K1 cells; format: cell-based, hamster; conditions: for % Micronucleated cells / Micronucleus Test Result: 4 hours, CHO-K1
Method: Genetic toxicity analysis of compounds was performed in an in vitro micronucleus test, according to the protocol described in Diaz and colleagues (2007), at Eurofins Panlabs (St. Charles, MO, US). Micronucleated cells and micronuclei were enumerated by the use of high-content fluorescent cell imaging. The assay was performed on CHO-K1 cells. […] Experiments were performed in 2 biological replicates. All cell lines were tested as being negative for Mycoplasma contamination.

[17] = in vitro; conditions: human
Method: Cytotoxicity of compounds on HepG2 and MCF-7 mammalian cell lines was determined by using a standard LDH assay. Briefly, HepG2 and MCF-7 cells were cultured in Eagle’s MEM medium (from Gibco) supplemented with 2 mM L-glutamine (Sigma), 100 U/mL penicillin (Sigma), and 100 μg/mL streptomycin (Sigma), and 10% FBS (Gibco) at 37 °C and under 5% CO2. Next, LDH assays were performed according to manufacturer instructions (Thermo Fisher Scientific, Massachusetts, USA). By using a CyQUANT LDH Cytotoxicity Assay Kit. Firstly, the cells were seeded in 96-well microtiter plates at 10^5 cells/mL (100 μL/well) and allowed to attach overnight. […] Lysis buffer (10 μL, Thermo Fisher Scientific) was then added to the maximal LDH activity control wells and incubated additional 45 minutes. The cell culture supernatant (50 μL) was then transferred to a new 96-well plate and mixed with 50 μL of the reaction mixture. After 30 minutes on room temperature, reactions were stopped with 50 μL of the Stop solution. Absorbance (490 nm and 680 nm) was measured with the automatic microplate reader Synergy 4 Hybrid Microplate Reader (BioTek, VT, USA). All experiments were performed in triplicates and repeated 3 times. Statistical significance (P < 0.05) was calculated with 2-tailed Welch’s t-test between treated groups and DMSO. The percentage of cytotoxicity was determined according to the following equation: %Cytotoxicity=(CompoundtreatedLDHactivity-SpontaneousLDHactivity/MaximumLDHactivity-SpontaneousLDHactivity)*100

[18] = test system: human red blood cells; experiment: Haemolysis analysis
Method: Next, 600 μl of this EDTA-treated blood was washed in TBS buffer (10 mM TRIS, 150 mM NaCl [pH 7.2]) and centrifuged at 1,500 g for 1 minute until the supernatant became colorless. The aliquot of the final pellet (200 μL) was diluted to 5 mL with TBS buffer. […] Next, 100 μL of red blood cell suspension was pipetted into sterile Eppendorf tubes together with 100 μL of 2-fold serial dilution of the compounds (final concentration ranged between 100 μg/mL–0.1 μg/mL in a final volume of 200 μL). The plate was incubated for one hour at 37 °C followed by centrifugation at 1,500 g for 1 minute to sediment all red blood cells. Next, all supernatants were subjected to LDH and Haemolysis-Icterus-Lipaemia (HIL) index determination on a Roche Modular P800 analyzer according to the manufacturer’s instructions. After completion of this step the rest of the supernatants were transferred to sterile 96-well plates for the measurement of their optical density at 560-nm wavelength (in a Multiskan FC microplate reader, Thermo Scientific). Melittin (Bachem) at a concentration of 50 μg/mL, and TBS and 10% DMSO/TBS were served as positive (100% hemolysis) and negative (no hemolysis) controls, respectively.

## Cc1[nH]c(C(=O)Nc2nc3ccc(C(=O)O)cc3s2)c(Cl)c1Cl [ULD1]
[1]; ATCC19606, Acinetobacter baumannii ATCC 19606
  MIC: 2 µg/mL
[1]; Acinetobacter baumannii ATCC 17978
  MIC: 4 µg/mL
[1]; Acinetobacter baumannii ATCC 19606
  MIC: 2 µg/mL
[2]; Clostridioides difficile, BAA1875
  MIC: ≤ 0.0312 µg/mL
[2]; Clostridium difficile BAA-1875
  MIC: < 0.0312 µg/mL
[3]; Enterococcus faecalis ATCC 29212
  MIC: 0.125 µg/mL
[3]; Enterococcus faecalis ATCC 51575, VRE (VanB+)
  MIC: 0.0625 µg/mL
[4]
  MIC: 4 µg/mL
[5]; ATCC49247, Haemophilus influenzae ATCC 49247
  MIC: ≤ 0.0312 µg/mL
[5]; Haemophilus influenzae ATCC 35056
  MIC: 0.125 µg/mL
[5]; Haemophilus influenzae ATCC 49247
  MIC: < 0.0312 µg/mL
[6]
  MIC: 4 µg/mL
[7]; ATCC10031
  MIC: 1 µg/mL
[7]
  MIC: 1 µg/mL
[8]; CCUG57598, Neisseria gonorrhoeae CCUG 57598
  MIC: ≤ 0.0312 µg/mL
[8]; Neisseria gonorrhoeae ATCC 700825
  MIC: < 0.0312 µg/mL
[8]; Neisseria gonorrhoeae CCUG 57598
  MIC: < 0.0312 µg/mL
[9]; ATCC27853, Pseudomonas aeruginosa ATCC 27853
  MIC: 8 µg/mL
[9]; Pseudomonas aeruginosa ATCC 27853
  MIC: 8 µg/mL
[9]; Pseudomonas aeruginosa B3-1811, Ciprofloxacin-R, Cephalosporin-R
  MIC: > 64 µg/mL
[10]; Shigella flexneri 668
  MIC: 16 µg/mL
[10]; Shigella flexneri HNCMB 20018
  MIC: 8 µg/mL
[11]; Staphylococcus aureus (strain not given), MRSA (SCCmec type IV), Oxacillin-R, VSSA, Cephalosporin-R, Erythromycin-R
  MIC: 1 µg/mL
[11]; Staphylococcus aureus ATCC 29213
  MIC: 1 µg/mL
[11]; Staphylococcus aureus ATCC 33594, MSSA, VSSA
  MIC: 0.5 µg/mL
[11]; Staphylococcus aureus ATCC 43300, MRSA
  MIC: 0.125 µg/mL
[11]; Staphylococcus aureus ATCC 700699 (Mu50, NRS1), MRSA, VISA
  MIC: 0.0625 µg/mL
[11]; Staphylococcus aureus CDC AR-BANK 0218, MRSA, VISA
  MIC: 1 µg/mL
[11]; Staphylococcus aureus ECL 2963646, MRSA, VRSA
  MIC: 0.125 µg/mL
[11]; Staphylococcus aureus NRS271, MRSA, Linezolid-R
  MIC: 1 µg/mL
[11]; Staphylococcus aureus USA300, ATCC BAA-1717, MRSA
  MIC: 0.5 µg/mL
[11]; Staphylococcus aureus USA400, BAA-1707, NRS123, MRSA
  MIC: 0.5 µg/mL
[11]; Staphylococcus aureus, ATCC 700699 / MRSA / NRS 1 / VISA, S. aureus ATCC 700699 (Mu50, NRS1), MRSA, VISA
  MIC: 0.0625 µg/mL
[11]; Staphylococcus aureus, S. aureus ECL 2963646, MRSA, VRSA
  MIC: 0.125 µg/mL
[12]; Streptococcus pneumoniae ATCC 49619
  MIC: 0.25 µg/mL
[12]; Streptococcus pneumoniae ATCC 51916
  MIC: 0.5 µg/mL
[12]; Streptococcus pneumoniae ATCC 700673
  MIC: 0.5 µg/mL
[13]; Streptococcus pyogenes ATCC 14289
  MIC: 0.25 µg/mL
[13]; Streptococcus pyogenes ATCC 19615
  MIC: 0.125 µg/mL
[14]; time 0 hour
  Time-kill bacterial count: 2.80E+05
[14]; time 3 hour
  Time-kill bacterial count: 9.80E+04
[14]; time 6 hour
  Time-kill bacterial count: 6.30E+04
[14]; time 12 hour
  Time-kill bacterial count: 4.90E+03
[14]; time 18 hour
  Time-kill bacterial count: 1.70E+03
[14]; time 24 hour
  Time-kill bacterial count: 8.50E+02
[14]; time 48 hour
  Time-kill bacterial count: 1.60E+02
[14]; 10× MIC, S. aureus ATCC 700699 (VISA), in words
  cell killing (bactericidal) activity: exceed that of fusidic acid
[14]; time 0 h, Dilution 100
  Colony numbers: 145 and 132 and 137
[14]; time 3 h, Dilution 100
  Colony numbers: 54 and 53 and 40
[14]; time 6 h, Dilution 100
  Colony numbers: 38 and 20 and 36
[14]; time 12 h, Dilution 10
  Colony numbers: 20 and 23 and 31
[14]; time 18 h, Dilution 1
  Colony numbers: 83 and 63 and 113
[14]; time 24 h, Dilution 0.5
  Colony numbers: 65 and 80 and 110
[15]; 9 independently evolved novobiocin-resistant isolates
  decrease in susceptibility compared with wild-type strain: up to 6 fold
[15]; WT S. aureus VISA ATCC 700699, read-out: MIC
  MIC: 0.04 µg/mL
[15]; novobiocin-adapted Evolved 1
  MIC: 0.016 µg/mL
[15]; novobiocin-adapted Evolved 2
  MIC: 0.125 µg/mL
[15]; novobiocin-adapted Evolved 3
  MIC: 0.016 µg/mL
[15]; novobiocin-adapted Evolved 4
  MIC: 0.25 µg/mL
[15]; novobiocin-adapted Evolved 5
  MIC: 0.063 µg/mL
[15]; novobiocin-adapted Evolved 6
  MIC: 0.063 µg/mL
[15]; novobiocin-adapted Evolved 7
  MIC: 0.125 µg/mL
[15]; novobiocin-adapted Evolved 8
  MIC: 0.125 µg/mL
[15]; novobiocin-adapted Evolved 9
  MIC: 0.016 µg/mL
[16]; 1.3 x 10^-4 M
  % Micronucleated cells: 0.32%
  Micronucleus Test Result: - (A negative test (-) result indicates P > 0.05 by t-test and percentage of micronucleated cells less than 2-fold higher than the background level)
[16]; 2.5 x 10^-4 M
  % Micronucleated cells: 0.56%
  Micronucleus Test Result: - (A negative test (-) result indicates P > 0.05 by t-test and percentage of micronucleated cells less than 2-fold higher than the background level)
[16]; 3.1 x 10^-5 M
  % Micronucleated cells: 0.47%
  Micronucleus Test Result: - (A negative test (-) result indicates P > 0.05 by t-test and percentage of micronucleated cells less than 2-fold higher than the background level)
[16]; 5.0 x 10^-4 M
  % Micronucleated cells: 0.57%
  Micronucleus Test Result: - (A negative test (-) result indicates P > 0.05 by t-test and percentage of micronucleated cells less than 2-fold higher than the background level)
[16]; 6.2 x 10^-5 M
  % Micronucleated cells: 0.36%
  Micronucleus Test Result: - (A negative test (-) result indicates P > 0.05 by t-test and percentage of micronucleated cells less than 2-fold higher than the background level)
[16]; CHO-K1 micronucleus assay, in words
  genetic toxicity: No genetic toxicity
[17]
  IC50: > 100 µM
[18]; human red blood cells, 100 µg/mL
  LDH activity: 40 Unit/mL
[18]; in words
  hemolytic activity on human red blood cells: no biocompatibility concerns
